Laboratory results published in PubChem BioAssay (NCI).
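Each compound was tested at five concentrations against cells in 96-well plates for 48 hours. Abbreviation: GI50, concentration required for 50% inhibition of growth. At the TGI there is no net growth.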

How the values were obtained:
Test in all cases: NCI-60 cell line screen, 48 h
[1] = system: SK-MEL-5 melanoma
[2] = system: NCI-H460 lung
[3] = system: SW-620 colon
[4] = system: NCI-H23 lung
[5] = system: NCI-H522 lung
[6] = system: HOP-92 NSCLC
[7] = system: HCT-15 colon
[8] = system: SF-295 CNS
[9] = system: MDA-MB-231 breast
[10] = system: LOX IMVI melanoma

Row | Compound | TGI [1] [µM] | TGI [2] [µM] | TGI [3] [µM] | TGI [4] [µM] | TGI [5] [µM] | TGI [6] [µM] | TGI [7] [µM] | TGI [8] [µM] | TGI [9] [µM] | TGI [10] [µM] | GI50 [1] [µM] | GI50 [2] [µM] | GI50 [3] [µM] | GI50 [4] [µM] | GI50 [5] [µM] | GI50 [10] [µM] | GI50 [7] [µM] | GI50 [8] [µM] | GI50 [9] [µM] | GI50 [6] [µM]
1 | Cc1ccc(C2=Nc3ccccc3SC(c3cccc([N+](=O)[O-])c3)C2)cc1 (configuration not stated) | > 100 | > 100 | > 100 | > 100 | 64.6 | 81.3 | > 100 | > 100 | > 100 | – | – | – | – | – | – | – | – | – | – | –
2 | CSC(=S)N/N=C(\C)c1cccc(C)n1 | 8.56 | 9.79 | > 56.9 | 13.9 | 3.01 | 13.9 | 48.1 | 24.8 | 36.4 | 15.1 | – | – | – | – | – | – | – | – | – | –
3 | CN(CCCCCl)P(=O)(OCCS(=O)(=O)CC(NC(=O)CCC(N)C(=O)O)C(=O)NC(C(=O)O)c1ccccc1)OCC1OC(n2cc(F)c(=O)[nH]c2=O)CC1O (configuration not stated) | 15.9 | – | > 64.4 | > 33.7 | > 57.4 | – | 46.6 | > 53.8 | 68.6 | 52.2 | 0.989 | < 0.01 | 1.28 | 0.27 | 0.266 | < 0.0127 | 1.32 | 0.0368 | 8.96 | –
4 | CCC1(O)C(=O)OCc2c1cc1n(c2=O)Cc2cc3cc(N)ccc3nc2-1 (configuration not stated) | 0.0761 | 0.189 | > 100 | 0.0817 | 0.27 | – | 3.55 | 0.36 | > 64.8 | 0.059 | – | – | – | – | – | – | – | – | – | –
5 | CCN(CCO)CC(C)Nc1ccc([N+](=O)[O-])c2sc3ccccc3c(=O)c12 (configuration not stated) | 5.56 | 2.27 | 3.19 | 6.4 | – | 7.7 | > 100 | 2.12 | 12.3 | 2.69 | 1.52 | 0.379 | 1.04 | 1.78 | – | 0.746 | 1.76 | 0.488 | 2.6 | 1.6
6 | Cc1c(C2=C(c3cn(C)c4ccccc34)C(=O)NC2=O)c2ccccc2n1C | > 25 | > 25 | > 25 | > 25 | > 25 | – | > 25 | > 25 | > 25 | > 25 | 2.29 | 1.29 | 1.26 | 13.2 | 0.969 | 5.3 | 1.3 | 1.16 | > 18.6 | –
7 | CN1CCN(Cc2ccc(NC(=O)c3[nH]ncc3Nc3ncnc4sc5c(c34)CCCC5)cc2)CC1 | 1.87 | 1.05 | 1.05 | – | 1.08 | 4.81 | 1.28 | 1.78 | 1.45 | 1.71 | 0.543 | 0.136 | 0.194 | – | 0.241 | 0.289 | 0.197 | 0.373 | 0.333 | 1.48
8 | O=[N+]([O-])c1cc(S(=O)(=O)Oc2ccccc2)ccc1Cl | 15 | 4.06 | 3.59 | 37.9 | 3.62 | 3.39 | 12.5 | – | 16.2 | 3.69 | 4.06 | 2.04 | 1.56 | 16.5 | 1.99 | 1.78 | 3.56 | – | 3.89 | 1.75
